# Activity calls are given as the source filed them. No cut-off for these calls is given here.
# Legend:
# [1] = Selectivity index, ratio of CC50 for cytotoxicity against mouse NCTC clone 929 cells to MIC for antibacterial activity against Klebsiella pneumoniae ATCC 14581; assay type: toxicity, cell-based; details: read-out: Selectivity Index
# [2] = Selectivity index, ratio of CC50 for cytotoxicity against mouse NCTC clone 929 cells to MIC for antibacterial activity against Klebsiella pneumoniae ATCC 10031; assay type: toxicity, cell-based; details: read-out: Selectivity Index
# [3] = system: Staphylococcus aureus; experiment: Antibacterial activity against Staphylococcus aureus ATCC 29213 by microbroth dilution assay; assay type: functional
# [4] = system: Staphylococcus aureus; experiment: Antibacterial activity against methicillin resistant Staphylococcus aureus NCTC 10442 by microbroth dilution assay; assay type: functional
# [5] = system: Klebsiella pneumoniae; experiment: Antibacterial activity against Klebsiella pneumoniae ATCC 14581 by microbroth dilution assay; assay type: functional
# [6] = Cytotoxicity against HEK293 cells assessed as cell survival rate at 50 ug/ml by CCK-8 assay relative to control; assay type: toxicity, cell-based; details: human, at 50 µg/mL, read-out: Activity
# [7] = Cytotoxicity against HEK293 cells assessed as cell survival rate at 12.5 ug/ml by CCK-8 assay relative to control; assay type: toxicity, cell-based; details: human, at 12.5 µg/mL, read-out: Activity
# [8] = system: Klebsiella pneumoniae; experiment: Antibacterial activity against Klebsiella pneumoniae ATCC 10031 assessed as log reduction in bacterial load at 4 times MIC measured after 2 hrs by time kill assay; assay type: functional
# [9] = system: Klebsiella pneumoniae; experiment: Antibacterial activity against Klebsiella pneumoniae ATCC 10031 assessed as log reduction in bacterial load at 8 times MIC measured after 2 hrs by time kill assay; assay type: functional
# [10] = system: Klebsiella pneumoniae; experiment: Antibacterial activity against Klebsiella pneumoniae ATCC 10031 assessed as reduction in bacterial load at 8 times MIC measured after 2 hrs by time kill assay relative to control; assay type: functional; design: scale not given: the % may be the effect or the level left
# [11] = Selectivity index, ratio of CC50 for cytotoxicity against HEK293 cells to MIC for antibacterial activity against Klebsiella pneumoniae ATCC 10031; assay type: toxicity, cell-based; details: human, read-out: Selectivity Index
# [12] = Selectivity index, ratio of CC50 for cytotoxicity against mouse NCTC clone 929 cells to MIC for antibacterial activity against Pseudomonas aeruginosa ATCC 9027; assay type: toxicity, cell-based; details: read-out: Selectivity Index
# [13] = Selectivity index, ratio of CC50 for cytotoxicity against HEK293 cells to MIC for antibacterial activity against Staphylococcus aureus ATCC 29213; assay type: toxicity, cell-based; details: human, read-out: Selectivity Index
# [14] = Selectivity index, ratio of CC50 for cytotoxicity against HEK293 cells to MIC for antibacterial activity against Klebsiella pneumoniae ATCC 14581; assay type: toxicity, cell-based; details: human, read-out: Selectivity Index
# [15] = system: Staphylococcus aureus; experiment: Antibacterial activity against Staphylococcus aureus ATCC 29213 in presence of 4.5 mmol/L K+ by broth microdilution method; assay type: functional
# [16] = system: Staphylococcus aureus; experiment: Antibacterial activity against Staphylococcus aureus ATCC 29213 in presence of 20 umol/L Fe3+ by broth microdilution method; assay type: functional
# [17] = system: Staphylococcus aureus; experiment: Antibacterial activity against methicillin resistant Staphylococcus aureus N315 in presence of 4.5 mmol/L K+ by broth microdilution method; assay type: functional
# [18] = system: Staphylococcus aureus; experiment: Antibacterial activity against methicillin resistant Staphylococcus aureus N315 in presence of 2.5 mmol/L Ca2+ by broth microdilution method; assay type: functional
# [19] = system: Staphylococcus aureus; experiment: Antibacterial activity against methicillin resistant Staphylococcus aureus N315 in presence of 1 mmol/L Mg2+ by broth microdilution method; assay type: functional
# [20] = system: Staphylococcus aureus; experiment: Antibacterial activity against methicillin resistant Staphylococcus aureus N315 in presence of 20 umol/L Fe2+ by broth microdilution method; assay type: functional
# [21] = system: Staphylococcus aureus; experiment: Antibacterial activity against methicillin resistant Staphylococcus aureus NCTC 10442 in presence of 20 umol/L Fe2+ by broth microdilution method; assay type: functional
# [22] = system: Escherichia coli; experiment: Antibacterial activity against Escherichia coli ATCC 25922 in presence of 4.5 mmol/L K+ by broth microdilution method; assay type: functional
# [23] = system: Escherichia coli; experiment: Antibacterial activity against Escherichia coli ATCC 25922 in presence of 1 mmol/L Mg2+ by broth microdilution method; assay type: functional
# [24] = system: Klebsiella pneumoniae; experiment: Antibacterial activity against Klebsiella pneumoniae ATCC 10031 in presence of 19 umol/L Fe2+ by broth microdilution method; assay type: functional
# [25] = system: Klebsiella pneumoniae; experiment: Antibacterial activity against Klebsiella pneumoniae ATCC 10031 in presence of 20 umol/L Fe3+ by broth microdilution method; assay type: functional
# [26] = system: Klebsiella pneumoniae; experiment: Antibacterial activity against Klebsiella pneumoniae ATCC 14581 in presence of 140 mmol/L Na+ by broth microdilution method; assay type: functional
# [27] = system: Klebsiella pneumoniae; experiment: Antibacterial activity against Klebsiella pneumoniae ATCC 14581 in presence of 4.5 mmol/L K+ by broth microdilution method; assay type: functional
# [28] = system: Klebsiella pneumoniae; experiment: Antibacterial activity against Klebsiella pneumoniae ATCC 14581 in presence of 1 mmol/L Mg2+ by broth microdilution method; assay type: functional
# [29] = system: Klebsiella pneumoniae; experiment: Antibacterial activity against Klebsiella pneumoniae ATCC 14581 in presence of 19 umol/L Fe2+ by broth microdilution method; assay type: functional
# [30] = system: Klebsiella pneumoniae; experiment: Antibacterial activity against Klebsiella pneumoniae ATCC 14581 in presence of 20 umol/L Fe3+ by broth microdilution method; assay type: functional
# [31] = system: Pseudomonas aeruginosa; experiment: Antibacterial activity against Pseudomonas aeruginosa ATCC 9027 in presence of 4.50 mmol/L K+ by broth microdilution method; assay type: functional
# [32] = system: Klebsiella pneumoniae; experiment: Antibacterial activity against Klebsiella pneumoniae ATCC 10031 assessed as loss in membrane integrity at 8 times MIC incubated for 4 hrs by LIVE/DEAD BacLight bacterial viability assay; assay type: functional, organism-based; details: Cell membrane
# [33] = system: Klebsiella pneumoniae; experiment: Inhibition of biofilm formation in Klebsiella pneumoniae ATCC 10031 by crystal violet staining assay; assay type: functional, organism-based; details: dose 0.78-25 µg/ml
# [34] = system: Staphylococcus aureus; experiment: Inhibition of biofilm formation in Staphylococcus aureus ATCC 29213 at 0.78 ug/ml by crystal violet staining assay relative to control; assay type: functional
# [35] = system: Staphylococcus aureus; experiment: Inhibition of biofilm formation in Staphylococcus aureus ATCC 29213 at 6.25 ug/ml by crystal violet staining assay relative to control; assay type: functional
# [36] = system: Staphylococcus aureus; experiment: Inhibition of biofilm formation in Staphylococcus aureus ATCC 29213 at 12.5 ug/ml by crystal violet staining assay relative to control; assay type: functional
# [37] = system: Klebsiella pneumoniae; experiment: Inhibition of biofilm formation in Klebsiella pneumoniae ATCC 10031 at 0.78 ug/ml by crystal violet staining assay relative to control; assay type: functional
# [38] = system: Staphylococcus aureus; experiment: Antibiofilm activity against 24 hrs preformed biofilm in Staphylococcus aureus ATCC 29213 assessed as reduction in biofilm viability at 0.78 ug/ml relative to control; assay type: functional; details: dose 0.78 µg/ml
# [39] = system: Staphylococcus aureus; experiment: Antibiofilm activity against 24 hrs preformed biofilm in Staphylococcus aureus ATCC 29213 assessed as reduction in biofilm viability at […] ug/ml relative to control; assay type: functional; details: dose […] microg/ml; 1.56 ug/mL
# [40] = system: Staphylococcus aureus; experiment: Antibiofilm activity against 24 hrs preformed biofilm in Staphylococcus aureus ATCC 29213 assessed as reduction in biofilm viability at 6.25 ug/ml relative to control; assay type: functional; details: dose 6.25 µg/ml
# [41] = system: Klebsiella pneumoniae; experiment: Induction of resistance development in Klebsiella pneumoniae ATCC 10031 assessed as fold increase in MIC treated over 20 serial passages by microdilution assay; assay type: functional
# [42] = system: Staphylococcus aureus; experiment: Antibacterial activity against Staphylococcus aureus ATCC 29213 infected in cyclophosphamide immunosuppressed keratitis mouse model assessed as log reduction in number of viable bacterial colonies at 10 mg/ml administrated tropically; assay type: functional
compound,measurement,setting,value
CCCCCCCN1c2ccccc2Sc2ccc(OCC(=O)N[C@@H](CCCNC(=N)N)C(=O)N[C@@H](CCCNC(=N)N)C(N)=O)cc21,selectivity ratio,[1],8
same,selectivity ratio,[2],8
same,MIC,[3],1.56 µg/mL
same,MIC,[4],1.56 µg/mL
same,MIC,[5],3.12 µg/mL
same,viability at 50 ug/ml,[6],56%
same,viability at 12.5 ug/ml,[7],80.6%
same,log(activity),[8],>3
same,log(activity),[9],>3
same,Activity,[10],>99.9%
same,selectivity ratio,[11],8
same,selectivity ratio,[12],8
same,selectivity ratio,[13],8
same,selectivity ratio,[14],8
same,MIC,[15],1.56 µg/mL
same,MIC,[16],1.56 µg/mL
same,MIC,[17],1.56 µg/mL
same,MIC,[18],3.12 µg/mL
same,MIC,[19],1.56 µg/mL
same,MIC,[20],1.56 µg/mL
same,MIC,[21],1.56 µg/mL
same,MIC,[22],3.12 µg/mL
same,MIC,[23],3.12 µg/mL
same,MIC,[24],6.25 µg/mL
same,MIC,[25],6.25 µg/mL
same,MIC,[26],3.12 µg/mL
same,MIC,[27],3.12 µg/mL
same,MIC,[28],3.12 µg/mL
same,MIC,[29],3.12 µg/mL
same,MIC,[30],6.25 µg/mL
same,MIC,[31],6.25 µg/mL
same,Activity,[32],Active
same,inhibition,[33],Dose-Dependent Effect
same,inhibition at 0.78 µg/mL,[34],45%
same,inhibition at 6.25 µg/mL,[35],95.1%
same,inhibition at 12.5 µg/mL,[36],96.7%
same,inhibition at 0.78 µg/mL,[37],27.1%
same,Activity,[38],91.66%
same,Activity,[39],62.14%
same,Activity,[40],15.93%
same,fold change (FC),[41],< 4
same,log(activity),[42],5.28
